Four compounds from publication PMC5468247, “Development of a selective agonist for relaxin family peptide receptor 3” (Scientific Reports, 2017) can be followed below.

In assay [1] the target is T1, human RXFP4 (Homo sapiens, UniProt Q8TDU9).
T1 construct: expressed in transfected cells; host or cells: HEK293T
The assay is described as follows: Receptor binding assay, NanoLuc-conjugated R3/I5 tracer competition. As to conditions: for fold lower binding potency towards RXFP4 compared with R3/I5: relative to R3/I5; for binding potency towards RXFP4, in words: compared with R3/I5. The method, then:
(§1) Specific binding data are expressed as means ± SE (n = 3) and fitted to sigmoidal curves using SigmaPlot 10.0 software.
(§2) Briefly, HEK293T cells were transiently transfected with an expression construct of human RXFP3 or human RXFP4. On the next day, transfected cells were trypsinised, seeded into 96-well plates, and continuously cultured for 24–36 h to ~100% confluence. […] After incubation at 21 °C for 2 h, binding solution was removed and cells were washed twice with ice-cold phosphate-buffered saline (200 μl/well for each wash). Thereafter, cells were lysed by lysis solution (100 μl/well, Promega, Madison, WI, USA) and cell lysates were transferred to a white opaque 96-well plate (50 μl/well). After mixing with freshly diluted substrate (50 μl/well), bioluminescence was immediately measured on a SpectraMax M5 plate reader (Molecular Devices, Sunnyvale, CA, USA) in luminescence mode. […] The calculated specific binding data were expressed as means ± standard error (SE; n = 3) and fitted to sigmoidal curves using SigmaPlot 10.0 software.

Assay [2] concerns the target T2, human RXFP3 (Homo sapiens, UniProt Q9NSD7).
T2 construct: expressed in transfected cells; host or cells: HEK293T
T2 sequence (Q9NSD7 1-469): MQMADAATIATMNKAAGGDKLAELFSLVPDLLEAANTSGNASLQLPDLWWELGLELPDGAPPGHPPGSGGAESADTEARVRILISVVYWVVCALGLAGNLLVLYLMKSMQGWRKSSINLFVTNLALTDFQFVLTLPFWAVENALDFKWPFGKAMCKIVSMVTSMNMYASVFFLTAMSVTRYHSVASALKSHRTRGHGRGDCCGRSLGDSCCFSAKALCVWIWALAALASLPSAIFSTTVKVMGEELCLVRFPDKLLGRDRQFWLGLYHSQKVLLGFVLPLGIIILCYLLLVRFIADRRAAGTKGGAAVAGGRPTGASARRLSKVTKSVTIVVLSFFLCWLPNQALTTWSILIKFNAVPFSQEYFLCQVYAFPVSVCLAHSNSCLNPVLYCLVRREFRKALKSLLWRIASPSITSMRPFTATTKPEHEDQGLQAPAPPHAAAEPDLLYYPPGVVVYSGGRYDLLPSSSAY
Described as above. As to conditions: for binding potency towards RXFP3, in words: compared with R3/I5. The method, then: as §1, §2

Assay [3] has as its target T1, human RXFP4. The assay is described as follows: Receptor activation assay, CRE-controlled NanoLuc reporter. The assay is classed as cell-based. As to conditions: relative to R3/I5. The text has this:
(§3) HEK293T cells transiently cotransfected with a CRE-controlled NanoLuc reporter vector and the expression construct of human RXFP3 or human RXFP4 were used for activation assays. The measured bioluminescence data are expressed as means ± SE (n = 3) and fitted to sigmoidal or linear curves using SigmaPlot 10.0.
(§4) Briefly, HEK293T cells were transiently cotransfected with the NanoLuc reporter vector pNL1.2/CRE and the expression construct of human RXFP3 or human RXFP4. On the next day, transfected cells were trypsinised, seeded into 96-well plates, and continuously cultured for 24–36 h to ~90% confluence. To initiate activation assays, medium was removed and activation solution (serum-free DMEM medium plus 1% bovine serum albumin) containing 1.0 μM of forskolin and various concentrations of peptide was added (100 μl/well). After continuous culturing at 37 °C for 4 h, activation solution was removed and cells were lysed with lysis solution (100 μl/well, Promega). Cell lysates were then transferred to a white opaque 96-well plate (50 μl/well), mixed with freshly diluted substrate (50 μl/well), and bioluminescence was immediately measured on a SpectraMax M5 plate reader (Molecular Devices) in luminescence mode. The measured data were expressed as means ± SE (n = 3) and fitted to sigmoidal or linear curves using SigmaPlot 10.0 software.

The target of assay [4] is T2, human RXFP3. The assay is described as above. The assay is classed as cell-based. As to conditions: for activation potency towards RXFP3, in words: compared with R3/I5.
Description: as §3, §4

Where [5] appears, read: CRE-NanoLuc reporter, human RXFP3.

The structures appear in SMILES notation.

T1 sequence (Q8TDU9 whole entry): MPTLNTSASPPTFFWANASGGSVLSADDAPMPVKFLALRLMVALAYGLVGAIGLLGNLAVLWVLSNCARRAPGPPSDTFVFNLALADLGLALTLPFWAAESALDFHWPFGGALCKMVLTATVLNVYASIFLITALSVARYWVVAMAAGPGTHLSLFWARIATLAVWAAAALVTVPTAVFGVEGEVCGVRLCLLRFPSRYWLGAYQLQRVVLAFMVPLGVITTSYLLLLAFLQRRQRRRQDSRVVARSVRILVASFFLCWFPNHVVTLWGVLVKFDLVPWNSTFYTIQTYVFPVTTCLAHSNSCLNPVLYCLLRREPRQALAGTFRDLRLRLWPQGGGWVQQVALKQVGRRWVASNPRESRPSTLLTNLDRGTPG

As to `CC[C@H](C)[C@@H]1NC(=O)[C@H](Cc2ccccc2)NC(=O)[C@H](CCC(=O)O)NC(=O)[C@H](CCCNC(=N)N)NC(=O)CNC(=O)[C@@H](NC(=O)[C@H](CC(C)C)NC(=O)[C@H](CCCNC(=N)N)NC(=O)[C@@H](NC(=O)CNC(=O)[C@H](Cc2ccc(O)cc2)NC(=O)[C@@H]2CCCN2C(=O)[C@H](C)NC(=O)[C@H](C)NC(=O)[C@H](CCCNC(=N)N)NC(=O)[C@@H]2CCC(=O)N2)C(C)C)CSSC[C@@H]2NC(=O)[C@@H](NC(=O)[C@H](CC(C)C)NC(=O)[C@@H](NC(=O)[C@H](CCC(N)=O)NC(=O)[C@H](CC(C)C)NC(=O)[C@H](CC(=O)O)NC(=O)[C@H](CCC(N)=O)NC(=O)[C@H](CCCNC(=N)N)NC(=O)[C@H](CO)NC(=O)[C@H](CCCNC(=N)N)NC(=O)[C@H](CCCNC(=N)N)NC(=O)[C@H](CO)NC(=O)[C@@H](N)CCCNC(=N)N)[C@@H](C)O)CSSC[C@H](NC(=O)CNC(=O)[C@H](CC(=O)O)NC(=O)[C@H]([C@@H](C)O)NC2=O)C(=O)N[C@@H](CO)C(=O)N[C@@H](CCSC)C(=O)N[C@@H]([C@@H](C)O)C(=O)N[C@@H](CC(=O)O)C(=O)N[C@@H](CC(C)C)C(=O)N[C@@H](CO)C(=O)N[C@@H](C)C(=O)N[C@@H](CC(C)C)C(=O)N[C@H](C(=O)O)CSSC[C@@H](C(=O)NCC(=O)N[C@@H](CO)C(=O)N[C@@H](CO)C(=O)N[C@@H](CCCNC(=N)N)C(=O)N[C@@H](Cc2c[nH]c3ccccc23)C(=O)O)NC(=O)[C@H]([C@@H](C)O)NC(=O)[C@H](Cc2ccccc2)NC(=O)[C@H]([C@@H](C)CC)NC(=O)[C@H](C(C)C)NC(=O)[C@H](C)NC(=O)[C@H](CCCNC(=N)N)NC1=O` [[G(B24)S]R3/I5], the “fold lower binding potency towards RXFP4 compared with R3/I5” value on human RXFP4 [1] was 2 fold. Moreover, the “binding potency towards RXFP3, in words” value on human RXFP3 [2] was “retained full activation and binding potencies”. Moreover, the “fold lower activation potency towards RXFP4 compared with R3/I5” value on human RXFP4 [3] is listed as 20 fold. Besides, the “activation potency towards RXFP3, in words” value on human RXFP3 [4] (setting [5]) is “retained full activation and binding potencies”. At human RXFP3 [4] (selectivity RXFP3 over RXFP4, from activation assays), the “fold higher activation potency towards RXFP3 than towards RXFP4” value came out at 20 fold.

For the compound `CC[C@H](C)[C@@H]1NC(=O)[C@H](Cc2ccccc2)NC(=O)[C@H](CCC(=O)O)NC(=O)[C@H](CCCNC(=N)N)NC(=O)CNC(=O)[C@@H](NC(=O)[C@H](CC(C)C)NC(=O)[C@H](CCCNC(=N)N)NC(=O)[C@@H](NC(=O)CNC(=O)[C@H](Cc2ccc(O)cc2)NC(=O)[C@@H]2CCCN2C(=O)[C@H](C)NC(=O)[C@H](C)NC(=O)[C@H](CCCNC(=N)N)NC(=O)[C@@H]2CCC(=O)N2)C(C)C)CSSC[C@@H]2NC(=O)[C@@H](NC(=O)[C@H](CC(C)C)NC(=O)[C@@H](NC(=O)[C@H](CCC(N)=O)NC(=O)[C@H](CC(C)C)NC(=O)[C@H](CC(=O)O)NC(=O)[C@H](CCC(N)=O)NC(=O)[C@H](CCCNC(=N)N)NC(=O)[C@H](CO)NC(=O)[C@H](CCCNC(=N)N)NC(=O)[C@H](CCCNC(=N)N)NC(=O)[C@H](CO)NC(=O)[C@@H](N)CCCNC(=N)N)[C@@H](C)O)CSSC[C@H](NC(=O)CNC(=O)[C@H](CC(=O)O)NC(=O)[C@H]([C@@H](C)O)NC2=O)C(=O)N[C@@H](CO)C(=O)N[C@@H](CCSC)C(=O)N[C@@H]([C@@H](C)O)C(=O)N[C@@H](CC(=O)O)C(=O)N[C@@H](CC(C)C)C(=O)N[C@@H](CO)C(=O)N[C@@H](C)C(=O)N[C@@H](CC(C)C)C(=O)N[C@H](C(=O)O)CSSC[C@@H](C(=O)N[C@@H](C)C(=O)NCC(=O)N[C@@H](CO)C(=O)N[C@@H](CCCNC(=N)N)C(=O)N[C@@H](Cc2c[nH]c3ccccc23)C(=O)O)NC(=O)[C@H]([C@@H](C)O)NC(=O)[C@H](Cc2ccccc2)NC(=O)[C@H]([C@@H](C)CC)NC(=O)[C@H](C(C)C)NC(=O)[C@H](C)NC(=O)[C@H](CCCNC(=N)N)NC1=O` [[G(B23)A]R3/I5], the “binding potency towards RXFP4, in words” value on human RXFP4 [1] is “retained high binding potency”. Besides, on human RXFP3 [2], the “binding potency towards RXFP3, in words” value was “retained considerable binding potency”. In addition, at human RXFP4 [3], the “fold lower activation potency towards RXFP4 compared with R3/I5” value is recorded as ~ 100 fold. The “activation potency towards RXFP3, in words” value at human RXFP3 [4] (setting [5]) is “lost all activation potency”.

In the case of `CC[C@H](C)[C@@H]1NC(=O)[C@H](Cc2ccccc2)NC(=O)[C@H](CCC(=O)O)NC(=O)[C@H](CCCNC(=N)N)NC(=O)CNC(=O)[C@@H](NC(=O)[C@H](CC(C)C)NC(=O)[C@H](CCCNC(=N)N)NC(=O)[C@@H](NC(=O)CNC(=O)[C@H](Cc2ccc(O)cc2)NC(=O)[C@@H]2CCCN2C(=O)[C@H](C)NC(=O)[C@H](C)NC(=O)[C@H](CCCNC(=N)N)NC(=O)[C@@H]2CCC(=O)N2)C(C)C)CSSC[C@@H]2NC(=O)[C@@H](NC(=O)[C@H](CC(C)C)NC(=O)[C@@H](NC(=O)[C@H](CCC(N)=O)NC(=O)[C@H](CC(C)C)NC(=O)[C@H](CC(=O)O)NC(=O)[C@H](CCC(N)=O)NC(=O)[C@H](CCCNC(=N)N)NC(=O)[C@H](CO)NC(=O)[C@H](CCCNC(=N)N)NC(=O)[C@H](CCCNC(=N)N)NC(=O)[C@H](CO)NC(=O)[C@@H](N)CCCNC(=N)N)[C@@H](C)O)CSSC[C@H](NC(=O)CNC(=O)[C@H](CC(=O)O)NC(=O)[C@H]([C@@H](C)O)NC2=O)C(=O)N[C@@H](CO)C(=O)N[C@@H](CCSC)C(=O)N[C@@H]([C@@H](C)O)C(=O)N[C@@H](CC(=O)O)C(=O)N[C@@H](CC(C)C)C(=O)N[C@@H](CO)C(=O)N[C@@H](C)C(=O)N[C@@H](CC(C)C)C(=O)N[C@H](C(=O)O)CSSC[C@@H](C(=O)N[C@@H](CO)C(=O)N[C@@H](CCCNC(=N)N)C(=O)N[C@@H](Cc2c[nH]c3ccccc23)C(=O)O)NC(=O)[C@H]([C@@H](C)O)NC(=O)[C@H](Cc2ccccc2)NC(=O)[C@H]([C@@H](C)CC)NC(=O)[C@H](C(C)C)NC(=O)[C@H](C)NC(=O)[C@H](CCCNC(=N)N)NC1=O` [[∆B23-24]R3/I5], the “fold lower binding potency towards RXFP4 compared with R3/I5” value on human RXFP4 [1] is ~ 10 fold. The “fold lower binding potency for RXFP3 compared with R3/I5” value on human RXFP3 [2] (relative to R3/I5) is recorded as ~ 3 fold. Also, the “fold lower activation potency towards RXFP4 compared with R3/I5” value on human RXFP4 [3] was ~ 1000 fold. For the same compound, the “activation potency towards RXFP3, in words” value at human RXFP3 [4] (setting [5]) is “lost all activation potency”.

In the case of `CC[C@H](C)[C@@H]1NC(=O)[C@H](Cc2ccccc2)NC(=O)[C@H](CCC(=O)O)NC(=O)[C@H](CCCNC(=N)N)NC(=O)CNC(=O)[C@@H](NC(=O)[C@H](CC(C)C)NC(=O)[C@H](CCCNC(=N)N)NC(=O)[C@@H](NC(=O)CNC(=O)[C@H](Cc2ccc(O)cc2)NC(=O)[C@@H]2CCCN2C(=O)[C@H](C)NC(=O)[C@H](C)NC(=O)[C@H](CCCNC(=N)N)NC(=O)[C@@H]2CCC(=O)N2)C(C)C)CSSC[C@@H]2NC(=O)[C@@H](NC(=O)[C@H](CC(C)C)NC(=O)[C@@H](NC(=O)[C@H](CCC(N)=O)NC(=O)[C@H](CC(C)C)NC(=O)[C@H](CC(=O)O)NC(=O)[C@H](CCC(N)=O)NC(=O)[C@H](CCCNC(=N)N)NC(=O)[C@H](CO)NC(=O)[C@H](CCCNC(=N)N)NC(=O)[C@H](CCCNC(=N)N)NC(=O)[C@H](CO)NC(=O)[C@@H](N)CCCNC(=N)N)[C@@H](C)O)CSSC[C@H](NC(=O)CNC(=O)[C@H](CC(=O)O)NC(=O)[C@H]([C@@H](C)O)NC2=O)C(=O)N[C@@H](CO)C(=O)N[C@@H](CCSC)C(=O)N[C@@H]([C@@H](C)O)C(=O)N[C@@H](CC(=O)O)C(=O)N[C@@H](CC(C)C)C(=O)N[C@@H](CO)C(=O)N[C@@H](C)C(=O)N[C@@H](CC(C)C)C(=O)N[C@H](C(=O)O)CSSC[C@@H](C(=O)NCC(=O)NCC(=O)NCC(=O)N[C@@H](CO)C(=O)N[C@@H](CCCNC(=N)N)C(=O)N[C@@H](Cc2c[nH]c3ccccc23)C(=O)O)NC(=O)[C@H]([C@@H](C)O)NC(=O)[C@H](Cc2ccccc2)NC(=O)[C@H]([C@@H](C)CC)NC(=O)[C@H](C(C)C)NC(=O)[C@H](C)NC(=O)[C@H](CCCNC(=N)N)NC1=O` [[+G(B23-24)]R3/I5], the “binding potency towards RXFP4, in words” value at human RXFP4 [1] is “comparable with R3/I5”. Also, on human RXFP3 [2], the “binding potency towards RXFP3, in words” value is given as “comparable with R3/I5”. In addition, the “fold lower activation potency towards RXFP4 compared with R3/I5” value at human RXFP4 [3] is listed as ~ 100 fold. Further, on human RXFP3 [4] (CRE-NanoLuc reporter, human RXFP3, relative to R3/I5), the “fold lower activation potency towards RXFP3 compared with R3/I5” value was ~ 100 fold.
